According to US20240067600A1, “SMALL MOLECULE INHIBITORS OF THE MITOCHONDRIAL PERMEABILITY TRANSITION PORE (mtPTP)” (UNIVERSITY OF KANSAS, priority 2014, published 2024):
Where two headings read alike, the source gives them in different places.

Assays:
[1] = test system: exon 9 col6a1 morphant zebrafish; experiment: Spontaneous coiling of exon 9 col6a1 morphant zebrafish embryos; assay type: in vivo; conditions: 5 and 10 μM in fish water from 21 hpf; read at 24 hpf
Description: (§1) Zebrafish and embryo maintenance. Adult zebrafish were maintained in the facility of the University of Padova containing aerated, 28.5° C.-conditioned saline water according to standard protocols. Fish were kept under a 14 h light-10 h dark cycle. For mating, males and females were separated in the late afternoon, and were freed to start courtship the next morning, which ended with egg deposition and fecundation. Eggs were collected, washed with fish water (0.5 mM NaH2PO4, 0.5 mM NaHPO4, 0.2 mg/L methylene blue, 3 mg/L instant ocean) and embryos were maintained at 28.5° C. All protocols and manipulations with zebrafish were performed as described in C. B. Kimmel, W. W. Ballard, S. R. Kimmel, B. Ullmann, T. F. Schilling, Dev. Dyn. […]
(§2) Motor activity. Spontaneous coiling rates were recorded by observing the number of coiling events in 15 s for single embryos at 24 hpf using light microscopy. Touch-evoked escape response was measured at 48 hpf by observing the ability of larvae to escape after touching the body with a little tip. […]
(§3) Statistical analysis. Differences between control and compound treated samples were determined by one-way ANOVA test with Bonferroni correction using GraphPad Prism (version 5.1 for Windows). […] For FIG. 3, the total number of embryos used is n=35 for each condition; *p<0.05, ***p<0.001, as determined by χ^2 test and oneway ANOVA with Bonferroni correction.

[2] = test system: exon 9 col6a1 morphant zebrafish; experiment: Touch-evoked escape response of exon 9 col6a1 morphant zebrafish embryos; assay type: in vivo; conditions: 5 and 10 μM in fish water from 21 hpf; read at 48 hpf
Description: as §1, §2, §3

[3] = test system: exon 9 col6a1 morphant zebrafish; experiment: Muscle birefringence assay in exon 9 col6a1 morphant zebrafish embryos; assay type: in vivo
Description: as §1, with “C.” for “C. B. Kimmel, W. W. Ballard, S. R. Kimmel, B. Ullmann, T. F. Schilling, Dev. Dyn.”
Birefringence assay. Muscle birefringence was measured at 48 hpf on tricaine-anesthetized embryos by taking advantage of muscle fiber anisotropy. It was measured using two polarizing filters on a Leica M165FC stereomicroscope. Briefly, anesthetized embryos were placed on a glass slide, and muscle light refraction was analyzed by using two polarizing filters. […] Integrated area of birefringence was calculated by using ImageJ software, as disclosed in J. Berger, T. Sztal, P. D. Currie, Biochem. Biophys. […]
Statistical analysis. Differences between control and compound treated samples were determined by one-way ANOVA test with Bonferroni correction using GraphPad Prism (version 5.1 for Windows). […]

mtPTP = experiment: Calcium retention capacity (CRC) assay on isolated mitochondria; assay type: biochemical, mice; conditions: for Calcium Retention Capacity (CRC/CRC0) at 1.56 μM: 1.56 μM compound; for Calcium Retention Capacity (CRC/CRC0 at 12.5 μM): 12.5 μM compound
Description: Assay buffer: 250 mM sucrose, 10 mM MOPS-Tris, 0.01 mM EGTA-Tris, 1.0 mM phosphoric acid-Tris, pH 7.4. • Solution 1. 10 mM glutamate and 5 mM malate in Assay buffer. • Solution 2. 1% DMSO in Solution 2. • Solution 3. 0.5 mg/mL mitochondria and 1.0 μM Calcium Green-5N in Assay Buffer. • Solution 4. 0.25 mM CaCl2).
Protocol Summary: • 1. Freshly isolate mitochondria, prepare solutions according to the recipes in the Reagent Section. • 2. Dispense 100 μL of Solution 2 to Columns 1-2 (negative control) of the 96-well black assay plate (Falcon 353376). • 3. Dispense 200 μL of Solution 1 to Row A Columns 3-12. • 4. Next, dispense 100 μL of Solution 2 to Rows B-H Columns 3-12. • 5. Add 4 μL of 5 mM test compounds in DMSO to Row A Columns 3-12, perform 1:2 serial dilutions Row A to H Columns 3-12. • 6. Finally, dispense 100 μL of Solution 3 in all wells. • 7. Experiment starts. Read Calcium Green-5N fluorescence (excitation 485 nm, emission 538 nm) and perform a train of 4 μL Solution 4 additions with Fluoroskan Ascent FL, Thermo Scientific.

[4] = test system: Mitochondrial Permeability Transition Pore; experiment: Mitochondrial swelling absorbance assay; assay type: biochemical, mice
Description: Mitochondrial Swelling (Hit Validation, Confirmatory Assay, Concentration-Response, AID No. 720722)
Assay buffer: 250 mM sucrose, 10 mM MOPS-Tris, 0.01 mM EGTA-Tris, 1.0 mM phosphoric acid-Tris, pH 7.4 • Solution 1. 5.0 mM glutamate and 2.5 mM malate in Assay buffer. • Solution 2. 80-120 μM CaCl2) depending on mitochondrial activity in Solution 1. Note: Concentration of Ca^2+ in the assay is dependent upon the activity of the isolated mitochondria which is determined via a calcium titration just before each screening batch. A Ca^2+ concentration is used that allows for the arrival at a 2:1 window at the 20 minute time period. • Solution 3. 1% DMSO in Solution 2. • Solution 4. 2.0 mM EGTA-Tris, pH 7.4 in Solution 3. • Solution 5. 0.5 mg/mL mitochondria in Assay Buffer.
Protocol Summary: • 1. Freshly isolate mitochondria, prepare solutions according to the recipes in the reagent section • 2. Dispense 100 μL of Solution 4 to Columns 1-2 and Solution 3 Columns 11-12 (positive and negative controls, respectively) of the 96-well clear assay plate (Falcon 353072) • 3. Dispense 200 μL of Solution 1 to Row A Columns 3-10. • 4. Next, dispense 100 μL of Solution 3 to Rows B-H Columns 3-10. • 5. Add 4 μL of 5 mM test compounds in DMSO to Row A Columns 3-10, perform 1:2 serial dilutions Row A to H Columns 3-10. • 6. Finally, dispense 100 μL of Solution 5 in all wells. The reaction starts. • 7. Keep the plate at room temperature for 20 minutes and then read absorbance at 540 nm on MultiSkan EX, Thermo Scientific.
Concentration-Response Assay to Identify Compounds that Inhibit Mitochondrial Swelling (SAR Assay AID No. 743359)
Assay buffer: 250 mM sucrose, 10 mM MOPS-Tris, 0.01 mM EGTA-Tris, 1.0 mM phosphoric acid, pH 7.4 • Solution 1. 5.0 mM glutamate and 2.5 mM malate in Assay Buffer. • Solution 2. 100-120 μM CaCl2) depending on mitochondrial activity in Solution 1. Note: Concentration of Ca^2+ in the assay is dependent upon the activity of the isolated mitochondria which is determined via a calcium titration just before each screening batch. A Ca^2+ concentration is used that allows for the arrival at a 2:1 window at the 20 minute time period. • Solution 3. 1% DMSO in Solution 2. • Solution 4. 2.0 mM EGTA-Tris, pH 7.4 in Solution 3. • Solution 5. 0.5 mg/mL mitochondria in Assay Buffer.
Protocol Summary: • 1. Freshly isolate mitochondria, prepare solutions according to the recipes in the Reagent Section. • 2. Dispense 100 μL of Solution 4 to Columns 1-2 and Solution 3 Columns 11-12 (positive and negative controls, respectively) of the 96-well clear assay plate (Falcon 353072). • 3. Dispense 200 μL of Solution 1 to Row A Columns 3-10. • 4. Next, dispense 100 μL of Solution 3 to Rows B-H Columns 3-10. • 5. Add 4 μL of 5 mM test compounds in DMSO to Row A Columns 3-10, perform 1:2 serial dilutions Row A to H Columns 3-10. • 6. Finally, dispense 100 μL of Solution 5 in all wells. The reaction starts. • 7. Keep the plate at room temperature for 20 minutes and then read absorbance at 540 nm on MultiSkan EX, Thermo Scientific.

IMM potential = experiment: Rhodamine 123 (Rh123) uptake counterscreen; assay type: biochemical, mice;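 note: isolated mitochondria respiring on glutamate plus malate in sucrose MOPS-Tris buffer at pH 7.4, Rh123 added with the organelles, compounds tested across a twofold dilution series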
Description: Assay buffer: 250 mM sucrose, 10 mM MOPS-Tris, 0.01 mM EGTA-Tris, 1.0 mM phosphoric acid-Tris, pH 7.4 • Solution 1. 5.0 mM glutamate and 2.5 mM malate in Assay Buffer. • Solution 2. 1% DMSO in Solution 1. • Solution 3. 0.8 μM FCCP (the stock 40 μM in DMSO) in Solution 1. • Solution 4. 0.5 mg/mL mitochondria and 0.8 μM Rh123 in Assay Buffer.
Protocol Summary: • 1. Freshly isolate mitochondria, prepare solutions according to the recipes in the Reagent Section. • 2. Dispense 100 μL of Solution 3 to Columns 1-2 and Solution 2 Columns 11-12 (positive and negative controls, respectively) of the 96-well black assay plate (Falcon 353376). • 3. Dispense 200 μL of Solution 1 to Row A Columns 3-10. • 4. Next, dispense 100 μL of Solution 2 to Rows B-H Columns 3-10. • 5. Add 4 μL of 10 mM test compounds in DMSO to Row A Columns 3-10, perform 1:2 serial dilutions Row A to H Columns 3-10. • 6. Finally, dispense 100 μL of Solution 4 in all wells. The reaction starts. • 7. Keep the plate at room temperature for 5 minutes and then read fluorescence (excitation 485 nm, emission 538 nm) on Fluoroskan Ascent FL, Thermo Scientific.
Concentration-Response Counterscreen Assay to Identify Compounds that Prevent Mitochondrial Swelling Via Interference with the IMM Potential (SAR Assay AID No. 743361)
Assay buffer: 250 mM sucrose, 10 mM MOPS-Tris, 0.01 mM EGTA-Tris, 1.0 mM phosphoric acid-Tris, pH 7.4 • Solution 1. 5.0 glutamate and 2.5 mM malate in Assay Buffer. • Solution 2. 1% DMSO in Solution 1. • Solution 3. 0.8 μM FCCP (the stock 40 μM in DMSO) in Solution 1. • Solution 4. 0.5 mg/mL mitochondria and 0.8 μM Rh123 in Assay Buffer.

[5] = Table 1, read-out: Rh123 uptake (EC50)
[6] = Table 2, average of >3 experiments ± SEM
[7] = Table 2, average of >3 experiments ± SEM, read-out: Rh123 Assay EC50

Compound	Calcium Retention Capacity (CRC/CRC0) at 1.56 μM (mtPTP; Table 1, average ± SEM)	Calcium Retention Capacity (CRC/CRC0 at 12.5 μM) (mtPTP; Table 1, average ± SEM)	EC50 ([4]; Table 1, average ± SEM) [nM]	EC50 (IMM potential; [5]) [µM]	further results
Cc1c(Cl)cccc1NC(=O)c1cc(-c2ccc(F)c(O)c2)on1 [compound 60, N-(3-Chloro-2-methylphenyl)-5-(4-fluoro-3-hydroxyphenyl)isoxazole-3-carboxamide]					motor function: spontaneous coiling events (FIG. 1) [1]: dramatic improvement in motor function; motor function: touch-evoked response (FIG. 2) [2]: dramatic improvement in motor function; muscle defects by muscle birefringence (FIG. 3) ([3]; 5 and 10 μM in fish water from 21 hpf, read at 48 hpf): largely ameliorated; total birefringence scores ([3]; 48 hpf, ANOVA, p<0.05): significant recovery of muscle defects
COc1ccc(Cl)cc1NC(=O)c1cc(-c2cccc(O)c2)on1	6.95 ± 1.15	10.89 ± 1.34	60 ± 7.6	> 100	
Cc1cccc(C)c1NC(=O)c1cc(-c2cccc(O)c2)on1	8.12 ± 0.59 (at 1.56 μM)		12.1 ± 1.4	> 100	
COc1ccc(-c2cc(C(=O)Nc3cccc(Cl)c3C)no2)cc1O	9.59 ± 0.85	13.44 ± 0.93	0.0283 ± 0.0048	> 100	
COc1ccc(-c2cc(C(=O)Nc3cc(Cl)ccc3Cl)no2)cc1O	4.34 ± 0.53	9.59 ± 1.29	146 ± 11.5	> 100	
Cc1ccc(Cl)cc1NC(=O)c1ccc(-c2cccc(O)c2)cc1		2.59 ± 0.22	4710 ± 349	> 100	
Cc1ccc(Cl)cc1NC(=O)c1cc(-c2cccc(O)c2)on1	9.63 ± 0.29	14.99 ± 1.20	3.5 ± 0.7	> 100	
Cc1ccccc1NC(=O)c1cc(-c2ccc(O)cc2)on1		2.94 ± 0.46	2450 ± 148	> 100	
COc1ccc(-c2cc(C(=O)Nc3cc(Cl)ccc3F)no2)cc1O		5.37 ± 0.58	217 ± 51.8	> 100	
O=C(Nc1cc(Cl)ccc1F)c1cc(-c2cccc(O)c2)on1	3.77 ± 0.17 (at 1.56 μM)		172 ± 14	> 100	
COc1ccc(Cl)cc1C(=O)Nc1ccc(CN2CCOCC2)cc1		1.20 ± 0.00	8120 ± 388	> 100	
CN1CCN(c2ccc(NS(=O)(=O)c3cc(Cl)cc(Cl)c3)cc2)CC1		1.11 ± 0.03	21700 ± 1080	> 100	
O=C(Nc1cc(Cl)ccc1Cl)c1cc(-c2cccc(O)c2)on1		4.67 ± 0.31	1520 ± 51.2	38.5 ± 3.98	
Cc1cc(Cl)cc(NC(=O)c2cc(-c3ccc(F)c(O)c3)on2)c1		6.08 ± 0.52	819 ± 58.9	> 100	
COc1ccc(Cl)cc1C(=O)Nc1ccc(CN2CCNCC2)cc1 [drawing 151]		1.24 ± 0.04	6870 ± 423	> 100	
O=S(=O)(Nc1ccc(CCN2CCCCC2)cc1)c1cccc(Cl)c1		1.12 ± 0.02	38700 ± 3670	> 100	
COc1ccc(-c2cc(C(=O)Nc3cc(Cl)ccc3C)no2)cc1O	10.02 ± 0.34	14.44 ± 0.58	0.00756 ± 0.00122	> 100	
O=C(Nc1cccc(Cl)c1)c1cc(-c2cccc(O)c2)on1 [drawing 182]	4.13 ± 0.17 (at 1.56 μM)		78.8 ± 5.8	> 100	
Cc1ncc(Cl)cc1NC(=O)c1cc(-c2ccc(Cl)c(O)c2)on1	6.91 ± 0.47 (at 1.56 μM)		1.34 ± 0.26	> 100	
O=C(Nc1cc(Cl)ccc1F)c1cc(-c2ccc(F)c(O)c2)on1		10.07 ± 0.69	9 ± 1.4	> 100	
CN1CCN(Cc2ccc(NS(=O)(=O)c3cc(Cl)cc(Cl)c3)cc2)CC1		1.10 ± 0.02	29200 ± 2100	> 100	
O=S(=O)(Nc1ccc(CCN2CCCCC2)cc1)c1cc(Cl)cc(Cl)c1		1.17 ± 0.04	25600 ± 1800	> 100	
N#Cc1ccc(Cl)cc1NC(=O)c1cc(-c2cccc(O)c2)on1	7.69 ± 0.61	13.99 ± 1.50	30 ± 2.6	> 100	
O=C(Nc1cccc(CN2CCNCC2)c1)c1ccc(Cl)c(OCc2ccccc2)c1 [Entry 6]					Calcium Retention Capacity (CRC/CRC0 at 12.5 μM) (mtPTP; [6]): 16.1 ± 1.5; EC50 [4, 6]: 286 ± 27 nM; EC50 (IMM potential; [7]): 42.6 ± 3.1 µM
Cc1ncc(Cl)cc1NC(=O)c1cc(-c2cccc(O)c2)on1	6.62 ± 0.89	10.09 ± 0.91	24 ± 2.2	> 100	
CC1(C)CCN(CCCC(=O)c2ccc(Br)cc2)CC1		1.10 ± 0.05	18000 ± 1330	> 100	
O=C(Nc1ccc(CN2CCCCC2)cc1)c1ccc(Cl)c(OCc2ccccc2F)c1 [Entry 11]					Calcium Retention Capacity (CRC/CRC0 at 12.5 μM) (mtPTP; [6]): 2.59 ± 0.54; EC50 [4, 6]: 1390 ± 170 nM; EC50 (IMM potential; [7]): > 100 µM
